Data reported in ChEMBL document CHEMBL1201862, “PubChem BioAssay data set” (2004).
Active and inactive are the calls of the source.

Key:
[1] = target: T1, Corticotropin-releasing factor receptor 2/Corticotropin-releasing factor-binding protein (Homo sapiens, UniProt P24387+Q13324); assay: Dose Response confirmation of uHTS hits for small molecule antagonists of the CRF-binding protein and CRF-R2 receptor complex.; format: functional; conditions: read-out: IC50_Mean
T1 sequence (Q13324 whole entry): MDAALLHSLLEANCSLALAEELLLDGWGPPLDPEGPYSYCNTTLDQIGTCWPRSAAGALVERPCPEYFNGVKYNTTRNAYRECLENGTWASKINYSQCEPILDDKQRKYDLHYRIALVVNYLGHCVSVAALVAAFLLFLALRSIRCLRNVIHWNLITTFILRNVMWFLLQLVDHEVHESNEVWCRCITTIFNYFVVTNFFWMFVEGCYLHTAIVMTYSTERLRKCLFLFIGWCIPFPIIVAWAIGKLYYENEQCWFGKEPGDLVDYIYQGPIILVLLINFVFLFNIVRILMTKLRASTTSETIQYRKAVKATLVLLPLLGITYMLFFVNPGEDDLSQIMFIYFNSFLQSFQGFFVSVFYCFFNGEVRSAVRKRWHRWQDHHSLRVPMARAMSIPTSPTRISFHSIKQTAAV
T1 sequence (P24387 whole entry): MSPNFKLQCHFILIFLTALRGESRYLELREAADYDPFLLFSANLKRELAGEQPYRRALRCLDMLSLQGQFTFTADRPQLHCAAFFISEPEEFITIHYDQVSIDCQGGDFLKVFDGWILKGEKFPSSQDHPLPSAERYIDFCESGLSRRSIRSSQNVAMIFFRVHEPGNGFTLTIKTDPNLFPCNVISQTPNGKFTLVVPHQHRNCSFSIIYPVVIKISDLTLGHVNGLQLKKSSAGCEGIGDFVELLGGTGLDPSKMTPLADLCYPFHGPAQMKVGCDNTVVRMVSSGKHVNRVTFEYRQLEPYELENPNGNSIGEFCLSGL

[2] = target: T1, Corticotropin-releasing factor receptor 2/Corticotropin-releasing factor-binding protein; assay: activators of CRF receptor 2 with binding protein – uHTS hits, confirmation (AID 602473); format: functional; conditions: read-out: EC50_Mean
[3] = CRF-BP/CRF-R2 complex antagonists, dose response, cell-based, uHTS hits, 384-well (AID 651639); format: functional, Homo sapiens; conditions: read-out: IC50_Mean
[4] = target: ADP-ribosylation factor GTPase-activating protein 1 (Rattus norvegicus, UniProt Q62848); assay: Fluorescence polarization-based biochemical high throughput dose response screening assay to identify inhibitors of ADP-ribosylation factor GTPase activating protein 1 (ARFGAP1).; format: functional
ADP-ribosylation factor GTPase-activating protein 1, sequence (Q62848 whole entry): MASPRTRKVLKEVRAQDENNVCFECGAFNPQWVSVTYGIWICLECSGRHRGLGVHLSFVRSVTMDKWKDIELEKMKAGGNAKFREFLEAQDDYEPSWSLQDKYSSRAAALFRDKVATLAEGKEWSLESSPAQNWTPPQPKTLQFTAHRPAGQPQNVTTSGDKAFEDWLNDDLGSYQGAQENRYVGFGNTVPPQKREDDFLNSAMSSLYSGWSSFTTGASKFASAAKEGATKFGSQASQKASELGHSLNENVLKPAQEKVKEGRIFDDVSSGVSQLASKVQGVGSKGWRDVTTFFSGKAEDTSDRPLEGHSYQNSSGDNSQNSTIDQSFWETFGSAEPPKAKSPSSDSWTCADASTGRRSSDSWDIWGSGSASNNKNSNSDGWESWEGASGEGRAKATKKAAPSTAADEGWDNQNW

[5] = NIH-3T3 fibroblast cytotoxicity, dose response, cytotoxicity control, cell-based, fluorescence, Alamar Blue, secondary assay (AID 2327); format: functional;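 note: NIH-3T3 mouse fibroblasts cultured with fluconazole at 8 µg/mL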
[6] = C. albicans growth with fluconazole, confirmation, fluorescence, retest (AID 2467); format: functional, cell-based
[7] = inhibitors of intracellular T. cruzi replication, confirmation, NIH3T3 host cells, beta-gal luminescence (AID 2044); format: functional, cell-based;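 note: intracellular parasites grown in NIH/3T3 mouse fibroblasts as host cells; luminescent beta-galactosidase reporter signal from transgenic T. cruzi replicating inside host cells; inhibitors lower the luminescence signal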
[8] = growth suppression of PTEN-null colon cells, dose response, cell-based, HCT116 PTEN knockout (AID 1047); format: functional;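 note: HCT116 colon tumor cells with PTEN knocked out; cells exposed to compound for 60 hours before readout; potency for loss of cell viability measured by luminescence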
[9] = cytotoxicity toward NIH3T3 fibroblasts, dose response, counter-screen, cell-based, ATP luminescence, mouse fibroblasts (AID 2010); format: functional;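 note: cells exposed to compound for about 90 hours before reading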
[10] = growth suppression of beta-catenin-knockout colon cells, dose response, cell-based, HCT116, human colon tumor (AID 1045); format: functional;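 note: HCT116 colon tumor cells with beta catenin knocked out; cells exposed to compound for 60 hours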
[11] = miR-122 activators in hepatoma reporter cells, dose response, cell-based, Huh7 psiCHECK-miR122, Renilla luciferase, cherry-picked (AID 651956); format: functional;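 note: huh7 hepatoma cells stably carrying a psiCHECK-2 miR-122 sensor plasmid; renilla luciferase signal reporting endogenous miR-122 activity after 48 h compound exposure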
[12] = HEK293T cytotoxicity, dose response, cytotoxicity control for miR-122 modulator project, cell-based, activator set, cherry-pick (AID 720690); format: functional;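 note: HEK293T human cells scored for general mammalian cytotoxicity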
[13] = microbe, parasite or virus in culture; format: functional; conditions: Mycobacterium tuberculosis
[14] = system: Saccharomyces cerevisiae; assay: NALP1 inhibitor project selectivity study, Caspase-1/ASC signal blockade IC50 in S. cerevisiae (AID 488863); format: functional, organism-based
[15] = Luminescence Cell-Based Dose Retest to Confirm Inhibitors of Cancer Stem Cells. [Related pubchem assays (depositor defined):AID2717, AID2721]; format: functional; conditions: Homo sapiens
[16] = target: T2, NACHT, LRR and PYD domains-containing protein 1 (Homo sapiens, UniProt Q9C000); assay: NALP1 inhibitors in yeast, dose response, luminescent (AID 488860); format: functional
T2 sequence (Q9C000 whole entry): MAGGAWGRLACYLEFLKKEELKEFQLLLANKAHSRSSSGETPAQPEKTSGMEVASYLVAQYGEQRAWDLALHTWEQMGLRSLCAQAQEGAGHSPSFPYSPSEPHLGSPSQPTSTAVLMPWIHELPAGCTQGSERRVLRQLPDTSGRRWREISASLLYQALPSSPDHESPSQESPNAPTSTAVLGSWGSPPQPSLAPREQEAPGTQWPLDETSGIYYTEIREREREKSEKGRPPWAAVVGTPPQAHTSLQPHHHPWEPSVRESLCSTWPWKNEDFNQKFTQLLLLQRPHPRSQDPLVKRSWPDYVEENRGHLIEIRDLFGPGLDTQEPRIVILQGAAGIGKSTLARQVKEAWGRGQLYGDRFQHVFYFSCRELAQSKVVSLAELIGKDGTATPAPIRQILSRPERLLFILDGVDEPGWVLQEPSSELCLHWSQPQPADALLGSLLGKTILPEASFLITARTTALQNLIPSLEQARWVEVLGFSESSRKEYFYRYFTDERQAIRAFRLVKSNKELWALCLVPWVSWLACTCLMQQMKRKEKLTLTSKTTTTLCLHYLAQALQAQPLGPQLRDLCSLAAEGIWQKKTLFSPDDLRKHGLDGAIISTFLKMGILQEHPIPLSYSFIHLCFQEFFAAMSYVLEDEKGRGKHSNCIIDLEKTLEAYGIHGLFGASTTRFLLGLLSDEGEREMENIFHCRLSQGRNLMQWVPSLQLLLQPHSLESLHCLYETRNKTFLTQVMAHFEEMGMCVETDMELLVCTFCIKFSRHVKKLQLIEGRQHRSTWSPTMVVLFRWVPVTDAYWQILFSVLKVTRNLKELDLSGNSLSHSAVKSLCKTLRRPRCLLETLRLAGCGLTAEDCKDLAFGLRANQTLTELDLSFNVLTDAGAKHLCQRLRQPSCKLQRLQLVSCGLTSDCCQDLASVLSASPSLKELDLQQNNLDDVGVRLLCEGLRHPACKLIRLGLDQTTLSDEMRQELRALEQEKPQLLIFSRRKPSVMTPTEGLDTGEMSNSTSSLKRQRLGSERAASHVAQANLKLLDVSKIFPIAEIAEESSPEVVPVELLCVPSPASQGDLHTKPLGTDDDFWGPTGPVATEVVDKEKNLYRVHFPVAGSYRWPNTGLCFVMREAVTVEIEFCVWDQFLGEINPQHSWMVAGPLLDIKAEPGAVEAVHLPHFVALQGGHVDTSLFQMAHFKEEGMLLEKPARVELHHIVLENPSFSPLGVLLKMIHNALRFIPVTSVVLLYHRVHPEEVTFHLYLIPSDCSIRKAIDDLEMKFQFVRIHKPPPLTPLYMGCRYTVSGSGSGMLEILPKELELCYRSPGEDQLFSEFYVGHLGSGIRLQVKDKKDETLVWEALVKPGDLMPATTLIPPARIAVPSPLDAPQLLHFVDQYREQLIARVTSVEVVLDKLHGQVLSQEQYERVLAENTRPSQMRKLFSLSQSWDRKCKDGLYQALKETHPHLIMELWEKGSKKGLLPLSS

[17] = MDA-MB-231 cell growth inhibition, dose response, cytotoxicity control for RAD54 inhibitor project, CellTiter-Glo luminescence, cherry-pick (AID 651692); format: functional, cell-based
[18] = target: T3, DNA repair and recombination protein RAD54-like (Homo sapiens, UniProt Q92698); assay: inhibitors of human RAD54 branch migration, confirmation, biochemical, fluorescence, cherry-picked samples, dose series (AID 651657); format: functional
T3 sequence (Q92698 whole entry): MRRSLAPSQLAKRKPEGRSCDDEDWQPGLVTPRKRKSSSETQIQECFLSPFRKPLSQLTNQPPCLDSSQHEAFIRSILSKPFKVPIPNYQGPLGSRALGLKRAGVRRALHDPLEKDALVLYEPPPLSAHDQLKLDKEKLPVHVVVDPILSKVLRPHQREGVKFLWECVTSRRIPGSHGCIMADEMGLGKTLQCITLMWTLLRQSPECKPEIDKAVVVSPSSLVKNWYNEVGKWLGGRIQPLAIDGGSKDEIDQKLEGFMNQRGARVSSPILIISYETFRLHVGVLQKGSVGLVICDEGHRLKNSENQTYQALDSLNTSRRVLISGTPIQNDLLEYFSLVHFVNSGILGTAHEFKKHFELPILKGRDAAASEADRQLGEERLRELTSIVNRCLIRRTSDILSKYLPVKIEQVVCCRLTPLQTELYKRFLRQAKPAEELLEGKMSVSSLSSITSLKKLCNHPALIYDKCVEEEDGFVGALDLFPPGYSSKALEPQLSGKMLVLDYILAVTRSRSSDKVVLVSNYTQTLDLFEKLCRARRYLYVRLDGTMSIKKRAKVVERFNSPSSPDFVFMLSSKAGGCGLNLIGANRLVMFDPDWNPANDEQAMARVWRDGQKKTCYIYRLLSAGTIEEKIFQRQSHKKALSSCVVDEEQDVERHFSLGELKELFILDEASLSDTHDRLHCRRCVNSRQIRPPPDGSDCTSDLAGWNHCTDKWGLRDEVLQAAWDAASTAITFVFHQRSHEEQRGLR

[19] = target: T4, DNA repair protein RAD52 homolog (Homo sapiens, UniProt P43351); format: functional, biochemical
T4 sequence (P43351 whole entry): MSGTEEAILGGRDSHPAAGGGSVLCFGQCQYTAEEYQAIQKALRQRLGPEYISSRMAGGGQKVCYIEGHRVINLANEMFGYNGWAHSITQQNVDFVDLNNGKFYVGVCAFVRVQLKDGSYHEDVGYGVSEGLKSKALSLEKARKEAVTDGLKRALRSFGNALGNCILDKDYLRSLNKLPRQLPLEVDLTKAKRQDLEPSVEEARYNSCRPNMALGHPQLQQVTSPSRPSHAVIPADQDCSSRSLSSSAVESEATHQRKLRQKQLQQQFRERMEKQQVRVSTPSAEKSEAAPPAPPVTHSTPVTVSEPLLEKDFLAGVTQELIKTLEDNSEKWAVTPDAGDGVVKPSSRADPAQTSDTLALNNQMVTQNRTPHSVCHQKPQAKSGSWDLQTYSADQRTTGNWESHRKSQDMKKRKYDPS

[20] = target: T5, Low molecular weight phosphotyrosine protein phosphatase (Homo sapiens, UniProt P24666); format: functional; conditions: read-out: IC50_Mean
T5 sequence (P24666 whole entry): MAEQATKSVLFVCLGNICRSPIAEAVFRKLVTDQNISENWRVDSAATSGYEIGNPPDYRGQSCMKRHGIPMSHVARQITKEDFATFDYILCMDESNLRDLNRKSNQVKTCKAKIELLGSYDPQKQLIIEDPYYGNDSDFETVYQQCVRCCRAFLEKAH

[21] = target: T5, Low molecular weight phosphotyrosine protein phosphatase; format: functional; conditions: read-out: IC50_Mean; remark: listed apart in the source
[22] = target: T6, Tyrosine-protein phosphatase non-receptor type 22 (Homo sapiens, UniProt Q9Y2R2); assay: LYP phosphatase inhibition for selectivity, dose response, selectivity assay for LMPTP inhibitor project, biochemical, fluorescence, LYP catalytic domain (AID 652006); format: functional; conditions: read-out: IC50_Mean
T6 sequence (Q9Y2R2 whole entry): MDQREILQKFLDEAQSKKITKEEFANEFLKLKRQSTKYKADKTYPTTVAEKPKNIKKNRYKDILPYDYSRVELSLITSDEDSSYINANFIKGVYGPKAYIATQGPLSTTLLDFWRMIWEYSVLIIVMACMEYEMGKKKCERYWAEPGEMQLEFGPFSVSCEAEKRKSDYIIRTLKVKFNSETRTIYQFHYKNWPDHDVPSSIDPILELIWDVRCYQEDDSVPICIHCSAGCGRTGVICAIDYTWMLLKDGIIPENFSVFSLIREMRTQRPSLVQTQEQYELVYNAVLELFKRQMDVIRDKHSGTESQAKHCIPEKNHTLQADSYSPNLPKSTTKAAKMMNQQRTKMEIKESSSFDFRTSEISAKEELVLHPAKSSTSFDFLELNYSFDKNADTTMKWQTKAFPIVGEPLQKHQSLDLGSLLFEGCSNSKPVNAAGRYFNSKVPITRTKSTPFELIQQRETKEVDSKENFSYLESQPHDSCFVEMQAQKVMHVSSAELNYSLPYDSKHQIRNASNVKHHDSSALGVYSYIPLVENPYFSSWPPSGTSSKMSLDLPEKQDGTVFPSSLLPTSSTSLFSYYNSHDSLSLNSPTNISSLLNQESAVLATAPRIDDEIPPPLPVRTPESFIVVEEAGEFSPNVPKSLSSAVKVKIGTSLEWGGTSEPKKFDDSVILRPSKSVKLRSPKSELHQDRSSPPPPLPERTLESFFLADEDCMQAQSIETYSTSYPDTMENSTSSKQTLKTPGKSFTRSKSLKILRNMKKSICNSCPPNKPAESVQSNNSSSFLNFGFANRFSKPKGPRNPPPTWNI

CCN(Cc1ccccc1)C(c1cccc(C#N)c1)c1nnnn1C(C)(C)C (centres undefined)
IC50 [1]: 1 µM (active)
EC50 [2]: > 53 µM (inactive)
IC50 [3]: 7.23 µM (active)

O=C(Nc1ccc(-c2nc3ccccc3[nH]2)cc1)c1ccc2c(c1)OCO2
IC50 [4]: 42 µM (inactive)

N=c1c2c(-c3ccccc3)c(-c3ccccc3)n(Cc3ccccc3)c2ncn1CCO
EC50 [5]: > 150 µM (inactive)
EC50 [6]: > 38 µM (not active)
EC50 [7]: 2.42 µM (active)
EC50 [8]: 555 nM (active)
EC50 [9]: > 30 µM (not active)
EC50 [10]: 637 nM (active)
AC50 [11]: 30.5 µM (active)
AC50 [12]: 23.4 µM (active)

OC(CN1CCCCC1)Cn1c2ccc(Cl)cc2c2cc(Cl)ccc21 (centres undefined)
EC50 [7]: 2.43 µM (active)
CC50 [13]: 14.5 µM (active)
EC50 [9]: 10.8 µM (active)
IC50 [14]: 7.1 µM (active)
AC50 [15]: 5.53 µM (active)
IC50 [16]: 10.2 µM (active)
AC50 [17]: 32.1 µM (active)
AC50 [18]: 27.2 µM (active)
AC50 [19]: 12.1 µM (active)

O=C(N/N=C\C=C\c1ccc(Br)cc1)c1ccc2c(c1)OCO2
IC50 [20]: 7.43 µM (active)
IC50 [21]: 11.6 µM (active)
IC50 [22]: 23.5 µM (inactive)
